# Results from publication PMC7337048 (Journal of Structural Biology: X, 2019).
# Several values for one entry are separate records, joined by “and”; a condition that tells them apart may be missing. Equal values may be shown once. Read-outs that look alike come from different tables or passages of the source.
# Experiments:
# human Arginase-1 [1] = target: T1, human Arginase-1 (Homo sapiens, UniProt P05089); assay: Arginase-1 colorimetric urea assay (inhibition); type: biochemical; conditions: for IC50: read-out: IC50 (nM) (95% CI); for Ki: Cheng-Prusoff equation, read-out: Ki (nM) (95% CI)
# T1 sequence (P05089 1-322): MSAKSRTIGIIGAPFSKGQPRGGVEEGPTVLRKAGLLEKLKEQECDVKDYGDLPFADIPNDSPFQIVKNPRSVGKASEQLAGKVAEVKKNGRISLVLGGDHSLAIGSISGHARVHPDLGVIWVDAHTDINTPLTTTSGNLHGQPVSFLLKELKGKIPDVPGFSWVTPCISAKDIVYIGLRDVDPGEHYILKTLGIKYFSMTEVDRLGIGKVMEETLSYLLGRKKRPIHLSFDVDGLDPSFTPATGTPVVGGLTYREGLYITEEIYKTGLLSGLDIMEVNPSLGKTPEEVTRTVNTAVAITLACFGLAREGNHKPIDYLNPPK
# Description: Arginase-1 activity was monitored by measurement of the rate of urea formation in a classic colorimetric assay ([Jung et al., 1975], [Zawada et al., 2009]). […] Compounds were either dissolved and diluted in DMSO, followed by further dilution in reaction buffer, or dissolved in MilliQ water (MQ) and diluted in reaction buffer to the desired concentrations. […] The enzymatic reaction was stopped by addition of 30 μL of the reagent A + B mixture. […] The reported values were measured in quadruplicate in four independent experiments. Dose-response curves were fitted with a four-parameter logistic regression using XLFit (IDBS, Guildford, UK) to determine IC50 values. Graphs for the manuscript were prepared using Prism (GraphPad Software, San Diego, CA).
# human Arginase-1 [2] = target: T1, human Arginase-1; assay: Thermal shift assay; type: binding; conditions: 50 μM inhibitor
# Description: In a 96-well PCR plate (cat no. 652260; Greiner), 10 μL of the enzyme solution was mixed with 5 μL of 200 μM compound dissolved in MQ. […] The plate was sealed with Microseal B Adhesive Sealer (cat. no. MSB1001; Bio-Rad, Hercules, CA) and placed in a CFX96 Real-Time Detection System (Bio-Rad). The temperature was increased from 20 to 95 °C in increments of 0.5 °C during which the SYPRO Orange fluorescence was measured. The resulting datasets were first truncated to contain only the data points that lie between the minimal and maximal fluorescence signals. The remaining data were then fitted to the sigmoidal five-parameter equation (Eq. (2)) ([Schulz et al., 2013]), in which Fmin and Fmax are respectively the minimum and maximum fluorescent signals of the melting transition, T is the temperature, a is the hill slope and c is the asymmetric factor. The melting temperature was then determined as the point of inflection of the melting curve (Eq. […] The reported values were measured in quadruplicate in four independent experiments.(2) […]
# human Arginase-1 [3] = target: T1, human Arginase-1; assay: Surface plasmon resonance binding kinetics; conditions: for τ (target residence time): τ = 1/kd
# Description: Binding kinetics of the inhibitors were determined by SPR using a Biacore T200 (GE Healthcare). […] The inhibitors were diluted in running buffer from a stock solution in MQ and were injected in an increasing concentration range of 0.1, 0.316, 1, 3.16 and 10 µM. […] The compound response was subtracted with both the reference channel response and the blank injection.
# human Arginase-1 [4] = target: T1, human Arginase-1; conditions: Enzyme assay at pH 7.4; racemic ABH assumed; ref Golebiowski et al., 2013, Van Zandt et al., 2013, Golebiowski et al., 2013, Van Zandt et al., 2019; cited from earlier work
# Human Arginase-2 = conditions: cited from earlier work; for IC50: Enzyme assay at pH 7.4
# human Arginase-1 [5] = target: T1, human Arginase-1; assay: Apparent Michaelis-Menten parameters, colorimetric urea assay; type: biochemical; conditions: substrate; for Km: read-out: Michaelis constant (KM)
# Description: Arginase-1 activity was monitored by measurement of the rate of urea formation in a classic colorimetric assay ([Jung et al., 1975], [Zawada et al., 2009]). All components of the assay were diluted in Arginase reaction buffer 1 (8 mM Na2HPO4, 2 mM KH2PO4, pH 7.4, 137 mM NaCl, 2.7 mM KCl, and 0.05% Tween-20) or Arginase reaction buffer 2 (10 mM glycine, pH 9.5, 137 mM NaCl, 2.7 mM KCl, and 0.05% Tween-20). Compounds were either dissolved and diluted in DMSO, followed by further dilution in reaction buffer, or dissolved in MilliQ water (MQ) and diluted in reaction buffer to the desired concentrations. In a clear 384-well plate (cat. no. 781101; Greiner), 10 µL diluted compound and 10 µL of 3 nM (pH 9.5) or 15 nM (pH 7.4) Arginase-1 were combined and incubated for 90 min at room temperature. Then, 10 µL of 15 mM (pH 9.5) or 7.5 mM (pH 7.4) L-arginine (cat. no. 105000250; Acros Organics) was added to the plate, followed by incubation for 30 min. A 1:1 mixture of reagent A (10 mM o-phthaldialdehyde, 0.4% polyoxyethylene (23) lauryl ether (w/v) and 1.8 M sulfuric acid) and reagent B (1.3 mM primaquine diphosphate, 0.4% polyoxyethylene (23) lauryl ether (w/v), 130 mM boric acid and 3.6 M sulfuric acid) was prepared. The enzymatic reaction was stopped by addition of 30 μL of the reagent A + B mixture. After incubation with the reagent mixture for 60 min (pH 9.5) or 120 min (pH 7.4), the absorbance was measured at 450 nm using the EnVision 2104 Multilabel Plate Reader (PerkinElmer, Waltham, MA) (excitation filter P450). The final concentrations of Arginase-1 and L-arginine in the assay were respectively 1 nM and 5 mM at pH 9.5, and 5 nM and 2.5 mM at pH 7.4.
# Arginase-1 = tested on: Arginase-1; parameters: method as in Stone et al., 2010, Alarcón et al., 2006, Tsui et al., 2009; conditions: differences in pH and temperature; ref Stone et al., 2010, Alarcón et al., 2006, Tsui et al., 2009; cited from earlier work
# [6] = Enzyme assay at pH 7.5, ref Colleluori and Ash, 2001
smiles,measurement,setting,value
"N[C@@H](CCCCB(O)O)C(=O)O [ABH, (2S)-2-amino-6-boronohexanoic acid]",IC50,"human Arginase-1 [1]; pH 7.4, 5 nM Arginase-1, 2.5 mM L-arginine",184 nM
same,Ki,human Arginase-1 [1]; pH 7.4,88 nM
same,decrease in the Ki on increase of the pH from 7.4 to 9.5,human Arginase-1 [1]; pH 7.4 versus pH 9.5,8 fold
same,IC50,"human Arginase-1 [1]; pH 9.5, 1 nM Arginase-1, 5 mM L-arginine",22 nM
same,Ki,human Arginase-1 [1]; pH 9.5,11 nM
same,Tm,human Arginase-1 [2]; pH 7.4,77.4 °C
same,ΔTm at 50 µM,human Arginase-1 [2]; pH 7.4,4.5 °C
same,Tm,human Arginase-1 [2]; pH 9.5,80.9 °C
same,ΔTm at 50 µM,human Arginase-1 [2]; pH 9.5,3.5 °C
same,Kd,human Arginase-1 [3]; pH 7.4,797 nM
same,ka,human Arginase-1 [3]; pH 7.4,12000 M⁻¹ s⁻¹
same,kd,human Arginase-1 [3]; pH 7.4,0.0099 s⁻¹
same,log(ka),human Arginase-1 [3]; pH 7.4,4.09
same,log(kd),human Arginase-1 [3]; pH 7.4,−2.00
same,τ (target residence time),human Arginase-1 [3]; pH 7.4,100 s
same,Kd,human Arginase-1 [3]; pH 9.5,27 nM
same,ka,human Arginase-1 [3]; pH 9.5,5100 M⁻¹ s⁻¹
same,kd,human Arginase-1 [3]; pH 9.5,0.00014 s⁻¹
same,log(ka),human Arginase-1 [3]; pH 9.5,3.71
same,log(kd),human Arginase-1 [3]; pH 9.5,−3.86
same,τ (target residence time),human Arginase-1 [3]; pH 9.5,7200 s
same,IC50,human Arginase-1 [4],1450 to 1550 nM
same,IC50,"Human Arginase-2; racemic ABH assumed, ref Golebiowski et al., 2013, Van Zandt et al., 2013, Golebiowski et al., 2013, Van Zandt et al., 2019",1920 to 2550 nM
same,Ki,Human Arginase-2; [6],250 nM
same,Ki,"Human Arginase-2; Enzyme assay at pH 9.5, ref Colleluori and Ash, 2001",8.5 nM
same,potency lower at pH 7.5 compared to pH 9.5,"Human Arginase-2; pH 7.5 versus pH 9.5, ref Colleluori and Ash, 2001",~30 times
"C[C@H](N)C(=O)N1C[C@H](CCCB(O)O)[C@](N)(C(=O)O)C1 [CB-1158, (3R,4S)-3-amino-1-[(2S)-2-aminopropanoyl]-4-(3-boronopropyl)pyrrolidine-3-carboxylic acid]",IC50,"Human Arginase-2; ref Oberlies et al., 2009",296 nM
N=C(N)NCCC[C@H](N)C(=O)O [L-arginine],catalytic rate constant (kcat),human Arginase-1 [5]; pH 7.4,57 s⁻¹
same,Km,human Arginase-1 [5]; pH 7.4,2300 µM
same,catalytic rate constant (kcat),human Arginase-1 [5]; pH 9.5,460 s⁻¹
same,Km,human Arginase-1 [5]; pH 9.5,4900 µM
same,Km,Arginase-1,1900 µM and 2300 µM and 1500 µM
same,kcat,Arginase-1,300 s⁻¹ and 190 s⁻¹
"N=C(NO)NCC[C@H](N)C(=O)O [nor-NOHA, N^ω-hydroxy-nor-L-arginine]",ΔTm at 50 µM,human Arginase-1 [2]; pH 7.4,4.8 °C
same,ΔTm at 50 µM,human Arginase-1 [2]; pH 9.5,4.7 °C
same,IC50,"Human Arginase-2; ref Van Zandt et al., 2019",1260 nM
same,Ki,Human Arginase-2; [6],51 nM
